The structures appear in SMILES notation. “Also recorded” adds a separate entry of the source.

Data set [1] has as its system acetaminophen-induced liver injury. In words: Plasma ALT and AST release after acetaminophen, with simultaneous AHPP treatment (FIGS. 1A and 1B). The format is in vivo, rats. To be noted: AHPP 50 mg/kg q8h per gavage, simultaneous with acetaminophen 350 mg/kg i.p. As for the experimental part: The effect of AHPP on the release of ALT and AST in plasma was examined. […] The effect of AHPP is measured by the release of AST and ALT in rats.

The test system is the same in data set [2]. In words: Minimally effective AHPP dose: reduction in serum ALT. The format is in vivo.
The test system of data set [3] is acetaminophen-induced increases in ALT plasma levels. Briefly: Serum/plasma ALT levels with different frequencies and starting points of AHPP or NAC treatment (FIG. 2). Format: in vivo, rats. An excerpt:
The effectiveness of AHPP when given at various frequencies and starting points of administration was also examined. […] Serum ALT levels in rats were then examined
The bars from the left to the right represent the following groups: […]

Data set [4] concerns liver tissues (centrilobular injury). Briefly: Histological injury score in the liver. Format: in vivo, rats. As for the experimental part: Scoring was performed by two independent investigators who were blinded to the treatment regimen. The following grading system was used: 0--normal liver, no signs of injury; 1--rare areas of centrilobular injury; 2--moderate injury involving many centrilobular areas; 3--extensive centrilobular necrosis; 4--massive hepatic injury involving all centrilobular areas and beyond.

Data set [5] concerns acetaminophen-intoxicated mice. Briefly: Survival after severe acetaminophen intoxication, fasted 36 hours (FIG. 3). Format: in vivo.
The test system of data set [6] is acetaminophen-induced mortality. Briefly: Dose response survival study. Format: in vivo. To be noted: for protective effect / survival: 24 hours; for survival rate: vehicle 25%; for survival: vehicle 0%. As for the experimental part: The minimally effective dose of AHPP was examined. Criteria for an effective dose included ability to suppress liver injury and protect against acetaminophen-induced mortality. […] Although the effect was only partial, ALT levels were reduced by 56±16% (n=8; p<0.05).
In order to validate the significance of the above mentioned reductions in serum transaminases, a dose response survival study was also performed. […] Survival rate was 25% in the vehicle treated group, and improved to 87% with 3 mg/kg and 10 mg/kg q8h doses. […] For the survival studies, n=8-10 animals per group. […] The effective dose range lays between 10 and 50 mg/kg of AHPP q8h per enteral gavage.

A short description of data set [7]: Preliminary toxicity study, enteral administration. The format is in vivo, mice. To be noted: enteral gavage up to 1000 mg/kg (300, 500, 1000 mg/kg), 24 h, n=8 per group. As for the experimental part:
Preliminary toxicity studies were performed with AHPP to estimate the expected therapeutic ratio of the compound.

Data set [8] in a line: Survival after severe acetaminophen intoxication, fasted 36 hours (FIG. 3). Format: in vivo, mice. To be noted: mouse, in vivo, ip; 350 mg/kg i.p., fasted 36 hours, by 8 hours.
Where [9] appears, read: 50 mg/kg enterally, 4 h post-acetaminophen.

On to `Nc1nc(O)nc2[nH]ncc12` [AHPP, 4-Amino-6-hydroxypyrazolo[3,4-d]pyrimidine], for which the “degree of liver injury, as assessed by release of ALT and AST” value in data set [1] was “significantly reduced the degree of liver injury”. For the same compound, the protective effect result in data set [2] (3 mg/kg q8h per enteral gavage) is on record as “significant protection”; in data set [6] (3 mg/kg q8h), “lost its protective effect”; in data set [6] (10 mg/kg q8h), “maintained its protective effect”. Further, the “reduction in ALT levels” value in data set [2] (3 mg/kg q8h per enteral gavage, n=8, p<0.05) is 56±16%. Further, the “efficacy relative to 50 mg/kg dose” value in data set [2] (10 mg/kg q8h per enteral gavage) was “equivalent in efficacy to the 50 mg/kg dose”. In addition, the “reduction in serum ALT concentration” value in data set [2] (10 mg/kg q8h per enteral gavage, n=7, p<0.01) worked out at 89%. The “protective effect, 8 h+16 h” value in data set [3] (50 mg/kg enteral gavage at 8 h and 16 h post-acetaminophen) was “significant protective effects”. In addition, the “effect on ALT levels, 4 h post-treatment” value in data set [3] (50 mg/kg enterally, 4 h post-acetaminophen, no supplemental doses) is on record as “reduced”. For the same compound, the “ALT levels vs acetaminophen alone” value in data set [3] (concurrent with, or subsequent to acetaminophen) was “lowered ALT levels”. In data set [3] (inferred from efficacy via gavage, 24 h protocol), the enteral uptake entry is “sufficient enteral uptake”. Also, in data set [3] (start close in time to acetaminophen, followed by additional treatments at 8 h interval), the “effect of timing and frequency of administration” value is given as “most effective”. Also, the “hepatoprotection, conclusion” value in data set [3] (summary of data) was “advantageously compares to NAC as a hepatoprotective agent; also recorded: effective via an enteral delivery route; also recorded: effective both as a co-treatment and in delayed post-treatment regimens”. Further, the “median histological injury score” value in data set [4] (AHPP+Acetaminophen, scale 0 (normal liver) to 4 (massive hepatic injury), p<0.05) was 2.1. Further, the “histological injury in the liver” value in data set [4] (response to AHPP treatment, in words) is listed as “significant attenuation of the histological injury”. Besides, the protection / survival result in data set [5] (AHPP 30 mg/kg q8h gavage, simultaneous with acetaminophen 350 mg/kg i.p.) was “markedly protective; also recorded: dramatically prolonged survival”. For the same compound, the survival rate in data set [6] (3 mg/kg q8h enteral gavage, 8 hours) came to 87%; in data set [6] (10 mg/kg q8h enteral gavage, 8 hours), 87%. The survival in data set [6] (3 mg/kg q8h enteral gavage) is listed as 0%; in data set [6] (10 mg/kg q8h enteral gavage), 63%. Besides, the protection against mortality entry in data set [6] (3 and 10 mg/kg q8h enteral gavage, 8 hours) is listed as “significantly protected against mortality”. For the same compound, the “mortality or behavioral or histological alterations” value in data set [7] is “did not result in mortality or behavioral or histological alterations”.

As to `CC(=O)N[C@@H](CS)C(=O)O` [N-acetyl-cysteine, reference compound], the “protective effect, co-treatment (0 h)” value in data set [3] (50 mg/kg enterally at time of acetaminophen injection) was “significantly protective”. In data set [3] (setting [9]), the “degree of liver injury, 4 h post-treatment” value is on record as “exacerbated the degree of liver injury” and the “protective effect, 4 h post-treatment” value is recorded as “lost its protective effect”.

With `CC(=O)Nc1ccc(O)cc1` [acetaminophen, reference compound], the mortality – broadly, the percentage killed – at 8 h in data set [8] was 75%. In addition, the onset of lethality in data set [5] (350 mg/kg i.p., fasted 36 hours) came to 2 h.

The values are drawn from US6281222A (Inotek Corporation, priority 2000, dated 2001).
